Patent US20020166134A1, “Cardiomyocytes with enhanced proliferative potenial, and methods for preparing and using same” (priority 1999, published 2002)

What was measured:
[1] = test system: cardiomyocytes; assay: Tritiated thymidine incorporation assay of cardiomyocyte DNA synthesis (labeling index) in adult transgenic mice, with or without isoproterenol infusion; format: in vivo; settings: for Left Atrium cardiomyocyte labeling index / Right Atrium cardiomyocyte labeling index / Ventricle cardiomyocyte labeling index: isoproterenol infusion 7 days
Source text: A thymidine incorporation assay was used to determine if cardiomyocyte DNA synthesis persisted in adult transgenic MCH-CYCD2 animals. This testing also employed a second transgenic mouse line, designated MHC-nLAC. The MCH-nLAC mice express a nuclear localized β-galactosidase (βGAL) reporter gene exclusively in the cardiomyocytes (Soonpaa, M. H. et al., Science 264:98-101 (1994); Soonpaa, M. H. and L. J. Field, Am. J. Physiol. 272:H220-226 (1997)). Accurate cardiomyocyte tritiated thymidine labeling indices can be readily obtained with the MHC-nLAC animals simply by screening for co-localization of βGAL activity and silver grains in autoradiographs of 5-bromo-4-chloro-3-indolyl-B-D-galactoside (X-GAL) stained heart sections. To monitor the effect of cyclin D2 overexpression on cardiomyocyte DNA synthesis, MHC-CYCD2 mice were crossed with MHC-nLAC mice and animals carrying either the MHC-nLAC transgene alone or both transgenes were identified and sequestered. When the mice reached 11 weeks of age, they received a single injection of tritiated thymidine and were sacrificed four hours later. The hearts were removed, sectioned, stained with X-GAL and processed for autoradiography. […] In light of the sustained cardiomyocyte DNA synthesis observed in the adult MHC-CYCD2 mouse hearts, a series of experiments was initiated to ascertain how the transgenic myocardium would respond to cardiac hypertrophy. Osmotic mini-pumps (Model 2001, Alzet, Palo Alto, Calif., flow rate of 1 μl per hour) filled with saline or 0.028 g/ml isoproterenol in saline were implanted through a small longitudinal incision between the scapulae. 8 control mice (MHC-nLAC) and 8 cyclin D2 mice (MHC-nLAC/MHC-CYCD2 double transgenics) were used.
Prior to sacrifice, the experimental and control mice received a bolus injection of tritiated thymidine to permit assessment of cardiomyocyte DNA synthesis. After a 4 hour chase, the animals were sacrificed, and the hearts were harvested, cryoprotected, sectioned, stained with X-GAL and subjected to autoradiography. Once again, cardiomyocyte DNA synthesis was measured by scoring the presence of silver grains over βGAL positive nuclei. […] Isoproterenol treatment had no effect on cardiomyocyte DNA synthesis in the non-cyclin expressing control group.
Pulse chase experiments were employed to determine the fate of the cardiomyocytes synthesizing DNA. Once again, MHC-CYCD2 mice were crossed with MHC-nLAC mice. The MHC-nLAC mice express a nuclear localized β-GAL reporter exclusively in cardiomyocytes. Mice from this cross carrying either the MHC-nLAC transgene alone or both the MHC-nLAC and MHC-CYCD2 transgenes were identified and sequestered. At 11 weeks of age, myocardial hypertrophy was induced by isoproterenol infusion with Alzet minipumps (minipump model 2001, Alzet, Palo Alto Calif.; flow rate of 1 μl/hr, 0.028 g/ml isoproterenol). After 7 days of isoproterenol infusion, the control (MHC-nLAC) and experimental (MHC-nLAC/MHC-CYCD2 double transgenic) mice received a single injection of 3H-thymidine (200 uCi I.P. at 28 Ci/mM, Amersham, Arlington Heights, Ill.), and were sacrificed either 4 hours (pulse, FIG. 3A) or 72 hours (chase, FIG. 3B) later. The hearts were removed, cryoprotected in 30% sucrose, embedded and sectioned at 10 μm using standard histologic techniques. The sections were post-fixed in formaldehyde:glutaraldehyde (1:1) and overlaid with 1 mg/ml X-GAL, 5 mM potassium ferricyanide, 5 mM potassium ferrocyanide and 2 mM magnesium chloride in PBS. The sections were counter-stained with DAPI, and washed three times in PBS. After drying, stained slides were coated with photographic emulsion (Ilford L.4, Polysciences, Warrington Pa.) diluted 1:1 with water, drained, and placed in a light-tight box for four days at 4° C. Slides were then developed in Kodak D-19 (Rochester N.Y.) for four minutes, washed in water, and fixed in 30% sodium thiosulfate for at least four minutes. […]

[2] = Heart weight/body weight; format: in vivo, mice
Source text: A thymidine incorporation assay was used to determine if cardiomyocyte DNA synthesis persisted in adult transgenic MCH-CYCD2 animals. This testing also employed a second transgenic mouse line, designated MHC-nLAC. The MCH-nLAC mice express a nuclear localized β-galactosidase (βGAL) reporter gene exclusively in the cardiomyocytes (Soonpaa, M. H. et al., Science 264:98-101 (1994); Soonpaa, M. H. and L. J. Field, Am. J. Physiol. 272:H220-226 (1997)). Accurate cardiomyocyte tritiated thymidine labeling indices can be readily obtained with the MHC-nLAC animals simply by screening for co-localization of βGAL activity and silver grains in autoradiographs of 5-bromo-4-chloro-3-indolyl-B-D-galactoside (X-GAL) stained heart sections. To monitor the effect of cyclin D2 overexpression on cardiomyocyte DNA synthesis, MHC-CYCD2 mice were crossed with MHC-nLAC mice and animals carrying either the MHC-nLAC transgene alone or both transgenes were identified and sequestered. When the mice reached 11 weeks of age, they received a single injection of tritiated thymidine and were sacrificed four hours later. The hearts were removed, sectioned, stained with X-GAL and processed for autoradiography. […]

[3] = test system: cell cycle protein; assay: Western blot analysis of cell cycle protein level changes in response to isoproterenol; format: in vivo, mice; set-up: key to Cyclin D2 protein level: higher numbers of the symbol “+” indicate higher levels of protein; the symbol “−” indicates none detected; settings: 7 days infusion
Procedure: Western blots were used to analyze protein expression levels in adult MHC-CYCD2 mice and their non-transgenic litter mates. Hearts were homogenized in NP40 buffer (150 mM NaCl, 5 mM EDTA, 50 mM Tris-HCl pH 8.0, 1 μg/ml aprotinin, 1 μg/ml pepstatin, 1 μg/ml leupeptin, 50 μg/ml TLCK, 50 μg/ml PMSF, 100 μg/ml TPCK, 1% vol/vol Nonidet P-40). The homogenate was cleared by centrifugation at 40,000× g for 10 min, and the protein content of the supernatant was quantitated using a commercial assay (Bio-Rad, Richmond Calif.). Samples were separated by size on 10% polyacrylamide gels under denaturing conditions as described, and electro-blotted to nitrocellulose (Hoefer Scientific, San Francisco Calif.) membranes. The filters were stained with 0.1% naphthol blue-black in 45% methanol, 10% acetic acid to assess the efficiency of transfer. For Western analysis, nonspecific binding was blocked by incubation in block buffer (5% nonfat dry milk, 3% BSA, 0.1% Tween, 1×PBS) for 2 hr at room temperature. Commercial antibodies were used for each protein analyzed. Conditions (i.e. dilution, length of reaction, secondary antibody, etc) were according to the manufacturer's recommendations. The results are presented in Table 4 below, in which higher numbers of the symbol “+” indicate higher levels of protein, and the symbol “−” indicates none detected.
Myocardial hypertrophy was induced by isoproterenol infusion with Alzet minipumps in adult MHC-CYCD2 mice and their non-transgenic siblings (minipump model 2001, Alzet, Palo Alto Calif.; flow rate of 1 μl/hr, 0.028 g/ml isoproterenol). Hearts were harvested after 7 days of isoproterenol infusion and processed for Western blot analysis using procedures as described in Example 4. Again, higher numbers of the symbol “+” indicate higher levels of protein, and the symbol “−” indicates none detected.

[4] = test system: cardiomyocytes from the left atria of MHC-CYCD2 transgenic mice; assay: Number of cardiomyocyte nuclei (kariokinesis) in left atrial cultures with isoproterenol; format: cell-based; settings: isoproterenol 1 μm, 72 hrs, left atria of day 14 MHC-CYCD2 mice, FIG. 5
Procedure: Left atria from neonatal day 14 MHC-CYCD2 transgenic mice were harvested and digested in PBS (37° C., 60 min) containing 0.17% collagenase (Type I, Worthington Biochemical, Freehold N.J.). Cells were then triturated with a Pasteur pipette and plated at a density of 1×10^5 cells per chamber slide. Cells were cultured in DMEM supplemented with 10% FBS. In some cases, the media also contained isoproterenol (1 μm). After 72 hrs., the slides were fixed in gluteraldehyde-formaldehyde (1:1) and overlaid with 1 mg/ml X-GAL, 5 mM potassium ferricyanide, 5 mM potassium ferrocyanide and 2 mM magnesium chloride in PBS. The number of blue nuclei were counted directly on a microscope.

[5] = Control mice, isoproterenol treated 7 days
[6] = MHC-CYCD2 mice, listed as Isoproterenol

CC(C)NCC(O)c1ccc(O)c(O)c1 (centres unmarked) [isoproterenol]
Left Atrium cardiomyocyte labeling index ([1]; Control (MHC-nLAC) mice): 0%
Right Atrium cardiomyocyte labeling index ([1]; Control (MHC-nLAC) mice): 0%
Ventricle cardiomyocyte labeling index ([1]; Control (MHC-nLAC) mice): 0%
Left Atrial DNA Synth. (%) Iso(7 days) [1, 5]: 0.00%
Ventricular DNA Synth. (%) Iso(7 days) [1, 5]: 0.00%
Left Atrium cardiomyocyte labeling index ([1]; MHC-CYCD2 mice): 7.28%
Ventricle cardiomyocyte labeling index ([1]; MHC-CYCD2 mice): moderately decreased
Left Atrium cardiomyocyte labeling index [1, 6]: 7.28%
Right Atrium cardiomyocyte labeling index [1, 6]: 0.29%
Ventricle cardiomyocyte labeling index [1, 6]: 0.11%
effect on cardiomyocyte DNA synthesis ([1]; non-cyclin expressing control group, isoproterenol treatment): no effect
increase in heart weight/body weight ([2]; control mice, isoproterenol vs saline treated animals): 28%
increase in heart weight/body weight ([2]; cyclin expressing mice, continuous isoproterenol 7 days): 47.6%
CDC2 protein level ([3]; NonTransgenic (+Iso)): + +
Cyclin D2 protein level ([3]; NonTransgenic (+Iso)): +
PCNA protein level ([3]; NonTransgenic (+Iso)): + +
CDC2 protein level ([3]; Transgenic (+Iso)): + + + +
Cyclin D2 protein level ([3]; Transgenic (+Iso)): + + + + +
PCNA protein level ([3]; Transgenic (+Iso)): + + + +
number of cardiomyocyte nuclei in the culture [4]: substantial increase
